# Results reported in US9290496B2, “Purine derivatives” (PFIZER INC., priority 2013, dated 2016).
# Experiments:
# Type in all cases: cell-based
# EGFR L858R (NCI-H3255) = molecular target: T1, EGFR L858R (NCI-H3255) (Homo sapiens, UniProt P00533, L858R); experiment: pEGFR Y1068 ELISA assay, NCI-H3255 cells; details: inhibition of phosphorylation of EGFR at Tyr1068; NCI-H3255 NSCLC cells; 2 hr compound incubation
# T1 construct: detects endogenous levels of phospho-EGF Receptor (Tyr1068) protein; host or cells: NCI-H3255
# T1 sequence (P00533 25-1210 L858R): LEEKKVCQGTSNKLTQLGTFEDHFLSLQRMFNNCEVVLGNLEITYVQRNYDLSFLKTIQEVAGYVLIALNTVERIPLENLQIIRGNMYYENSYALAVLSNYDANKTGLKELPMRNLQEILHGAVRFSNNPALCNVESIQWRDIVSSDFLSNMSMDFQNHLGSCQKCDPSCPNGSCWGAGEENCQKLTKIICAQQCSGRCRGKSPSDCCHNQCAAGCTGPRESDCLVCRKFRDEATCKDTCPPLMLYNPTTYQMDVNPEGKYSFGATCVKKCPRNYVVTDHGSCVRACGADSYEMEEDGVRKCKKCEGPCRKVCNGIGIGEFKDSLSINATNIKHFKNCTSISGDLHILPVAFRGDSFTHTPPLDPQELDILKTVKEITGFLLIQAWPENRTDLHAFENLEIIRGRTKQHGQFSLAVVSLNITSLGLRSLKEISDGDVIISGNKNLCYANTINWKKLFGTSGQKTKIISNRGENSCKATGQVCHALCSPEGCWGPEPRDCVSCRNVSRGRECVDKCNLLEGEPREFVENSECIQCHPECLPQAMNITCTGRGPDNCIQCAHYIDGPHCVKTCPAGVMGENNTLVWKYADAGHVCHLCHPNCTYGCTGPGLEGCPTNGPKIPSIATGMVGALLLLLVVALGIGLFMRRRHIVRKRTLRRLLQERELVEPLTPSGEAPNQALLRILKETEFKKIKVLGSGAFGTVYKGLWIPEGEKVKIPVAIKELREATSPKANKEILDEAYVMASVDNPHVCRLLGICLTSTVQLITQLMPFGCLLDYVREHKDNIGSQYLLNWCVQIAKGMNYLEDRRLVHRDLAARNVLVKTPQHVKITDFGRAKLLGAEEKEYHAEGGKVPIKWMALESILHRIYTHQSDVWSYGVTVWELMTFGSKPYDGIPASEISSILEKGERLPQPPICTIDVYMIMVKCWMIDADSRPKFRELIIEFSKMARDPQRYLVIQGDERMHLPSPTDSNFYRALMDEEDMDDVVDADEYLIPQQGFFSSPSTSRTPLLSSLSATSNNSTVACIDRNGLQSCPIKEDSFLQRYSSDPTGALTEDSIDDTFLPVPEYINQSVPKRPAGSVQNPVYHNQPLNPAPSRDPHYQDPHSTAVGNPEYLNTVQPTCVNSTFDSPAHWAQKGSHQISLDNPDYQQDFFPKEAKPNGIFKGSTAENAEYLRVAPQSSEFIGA
# Description: (§1) The PathScan® Phospho-EGF Receptor (Tyr1068) Sandwich ELISA Kit is a solid phase sandwich enzyme-linked immunosorbent assay (ELISA) that detects endogenous levels of phospho-EGF Receptor (Tyr1068) protein. […] NCI-H3255 cells were licensed from NCI. […] All cells were cultured according to ATCC recommendations. A549, NCI-H1975, PC9, and NCI-H3255 cells were grown in RPMI media (Invitrogen, Carlsbad, Calif.) supplemented with 10% FBS (Sigma, St Louis, Mo.), and with 1% Penn/Strep (Invitrogen).
# (§2) Each compound was prepared as a DMSO stock solution (10 mM). Compounds were tested in duplicate on each plate, with an 11-point serial dilution curve (1:3 dilution). Compound treatment (50 μL) was added from the compound dilution plate to the cell plate. […] Plates were then incubated for 2 hr at 37° C., 5% CO2. […] The wash was then flicked off and ice-cold lysis buffer was added to the cells (50 μL/well). The plate was shaken for 20-30 min at 4° C. to completely lyse the cells. Sample diluent (50 μL/well) was added to the ELISA plate, and the lysate (50 μL) was diluted into the sample diluent in each well of the ELISA plate. Plates were sealed and incubated overnight at 4° C. with shaking. The next day, wells were washed four times with 1× Wash Buffer; plates were taped on lint-free paper after the final wash prior to adding Add Detection Antibody (green, 100 μL/well) to each well and incubating for 1 hr at 37° C. After incubation, wells were washed as described. HRP-Linked secondary antibody (red, 100 μL/well) was added to each well and incubated for 30 min at 37° C. After incubation, the wells were washed as described. TMB Substrate (100 μL/well) was added to each well and the plate incubated for 10 min at 37° C. or 30 min at rt maximum. Stop Solution (100 μL/well) was added to each well at the end of the incubation and plates were shaken gently for a few seconds. […] Data were analyzed using a four-parameter fit in Microsoft Excel.
# [1] = molecular target: T2, EGFR wildtype, endogenous (A549) (Homo sapiens, UniProt P00533); experiment: pEGFR Y1068 ELISA assay, A549 cells; details: inhibition of phosphorylation of EGFR at Tyr1068; A549 NSCLC cells; 2 hr compound incubation, then stimulated 10 min with EGF (40 ng/mL)
# T2 construct: A549 (EGFR wildtype, endogenous); host or cells: A549 (stimulated with EGF)
# T2 sequence (P00533 25-1210): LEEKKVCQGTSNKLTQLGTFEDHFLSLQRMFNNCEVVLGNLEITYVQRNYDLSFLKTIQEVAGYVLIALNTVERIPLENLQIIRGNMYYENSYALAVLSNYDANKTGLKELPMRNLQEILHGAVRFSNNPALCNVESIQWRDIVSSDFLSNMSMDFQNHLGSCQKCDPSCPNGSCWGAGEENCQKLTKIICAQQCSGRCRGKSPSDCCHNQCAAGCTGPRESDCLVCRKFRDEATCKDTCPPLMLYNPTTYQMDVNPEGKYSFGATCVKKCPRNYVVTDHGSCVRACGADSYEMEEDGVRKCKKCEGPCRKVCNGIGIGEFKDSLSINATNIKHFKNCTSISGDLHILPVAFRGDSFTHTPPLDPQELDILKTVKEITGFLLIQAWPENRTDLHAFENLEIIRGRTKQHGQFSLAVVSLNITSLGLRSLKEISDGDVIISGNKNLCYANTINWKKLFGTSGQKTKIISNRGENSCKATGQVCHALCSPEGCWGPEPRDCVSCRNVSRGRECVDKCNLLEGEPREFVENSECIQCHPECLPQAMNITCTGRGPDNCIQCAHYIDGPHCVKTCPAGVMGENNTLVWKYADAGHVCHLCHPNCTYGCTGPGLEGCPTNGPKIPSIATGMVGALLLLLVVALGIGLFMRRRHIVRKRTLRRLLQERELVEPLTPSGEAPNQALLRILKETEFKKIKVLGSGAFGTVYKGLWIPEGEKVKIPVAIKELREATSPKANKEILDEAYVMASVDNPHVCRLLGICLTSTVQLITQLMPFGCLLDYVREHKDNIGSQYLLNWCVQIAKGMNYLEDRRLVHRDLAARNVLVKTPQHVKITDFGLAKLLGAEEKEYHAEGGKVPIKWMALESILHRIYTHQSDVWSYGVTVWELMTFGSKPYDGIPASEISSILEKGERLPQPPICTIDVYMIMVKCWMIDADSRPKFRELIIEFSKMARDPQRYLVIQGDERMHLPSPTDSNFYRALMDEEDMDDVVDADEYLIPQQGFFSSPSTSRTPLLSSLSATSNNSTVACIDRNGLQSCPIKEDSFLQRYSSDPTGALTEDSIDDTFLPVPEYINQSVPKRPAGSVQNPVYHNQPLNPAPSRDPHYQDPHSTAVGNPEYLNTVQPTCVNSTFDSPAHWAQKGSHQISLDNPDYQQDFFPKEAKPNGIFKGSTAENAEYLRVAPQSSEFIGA
# Description: Phosphorylation of EGFR at Y1068 was measured by PathScan® Phospho-EGF Receptor (Try1068) Sandwich ELISA kit (#7240, Cell Signaling Technology®, Danvers, Mass.). The PathScan® Phospho-EGF Receptor (Tyr1068) Sandwich ELISA Kit is a solid phase sandwich enzyme-linked immunosorbent assay (ELISA) that detects endogenous levels of phospho-EGF Receptor (Tyr1068) protein. […] All cells were cultured according to ATCC recommendations. A549, NCI-H1975, PC9, and NCI-H3255 cells were grown in RPMI media (Invitrogen, Carlsbad, Calif.) supplemented with 10% FBS (Sigma, St Louis, Mo.), and with 1% Penn/Strep (Invitrogen). PC9-DRH cells were grown in RPMI with 10% FBS and 1 μM dacomitinib.
# Cells were plated at 40,000/well in complete culture media (50 μL/well) on the bottom of clear tissue culture treated microtiter plates (#3595, Corning Inc, Corning, N.Y.) and allowed to adhere overnight at 37° C., 5% CO2. The following day, compound dilution plates were prepared in 96 well clear V-bottom 0.5 mL polypropylene block plates (#3956, Corning, Inc). Each compound was prepared as a DMSO stock solution (10 mM). Compounds were tested in duplicate on each plate, with an 11-point serial dilution curve (1:3 dilution). Compound treatment (50 μL) was added from the compound dilution plate to the cell plate. […] Plates were then incubated for 2 hr at 37° C., 5% CO2. For A549 (EGFR wildtype) assay, cells were plated in full-serum (10%) media for 24 hr prior to compound treatment; cells were treated in full serum media as described and then stimulated for 10 min with EGF (40 ng/mL/starvation media, Invitrogen). Immediately prior to the end of the incubation, ice-cold lysis buffer was prepared (1× Cell Lysis Buffer (#9803, Cell Signaling Technology), 1 mM sodium orthovanadate (Na3VO4, #96508, Sigma), 1 mM phenylmethanesulfonyl fluoride (PMSF, 52332, CalBiochem/EMD Chemicals), complete Mini EDTA-free Protease Inhibitor Cocktail Tablet (1 tablet/10 mL, #11836170001, Roche, Indianapolis, Ind.), and PhosSTOP Phosphatase Inhibitor Cocktail Tablet (1 tablet/10 mL, #04906837001, Roche) in pure water. At the end of 2 hr, media was flicked off and cells were washed once with ice-cold 1 mM Na3VO4 in PBS (100 μL/well, Invitrogen). The wash was then flicked off and ice-cold lysis buffer was added to the cells (50 μL/well). The plate was shaken for 20-30 min at 4° C. to completely lyse the cells. Sample diluent (50 μL/well) was added to the ELISA plate, and the lysate (50 μL) was diluted into the sample diluent in each well of the ELISA plate. Plates were sealed and incubated overnight at 4° C. with shaking. The next day, wells were washed four times with 1× Wash Buffer; plates were taped on lint-free paper after the final wash prior to adding Add Detection Antibody (green, 100 μL/well) to each well and incubating for 1 hr at 37° C. After incubation, wells were washed as described. HRP-Linked secondary antibody (red, 100 μL/well) was added to each well and incubated for 30 min at 37° C. After incubation, the wells were washed as described. TMB Substrate (100 μL/well) was added to each well and the plate incubated for 10 min at 37° C. or 30 min at rt maximum. Stop Solution (100 μL/well) was added to each well at the end of the incubation and plates were shaken gently for a few seconds. Absorbance was read at 450 nm within 30 min after addition of Stop Solution on a PerkinElmer EnVision Excite Multilabel Reader Method for Absorbance or on a Molecular Devices SpectraMax^384 Reader for absorbance. Data were analyzed using a four-parameter fit in Microsoft Excel.
# EGFR del (PC9) = molecular target: T3, EGFR del (PC9) (Homo sapiens, UniProt P00533, DEL746-750); experiment: pEGFR Y1068 ELISA assay, PC9 cells; details: inhibition of phosphorylation of EGFR at Tyr1068; PC9 NSCLC cells; 2 hr compound incubation
# T3 construct: detects endogenous levels of phospho-EGF Receptor (Tyr1068) protein; host or cells: PC9
# T3 sequence (P00533 with tags, fused parts or gaps DEL746-750): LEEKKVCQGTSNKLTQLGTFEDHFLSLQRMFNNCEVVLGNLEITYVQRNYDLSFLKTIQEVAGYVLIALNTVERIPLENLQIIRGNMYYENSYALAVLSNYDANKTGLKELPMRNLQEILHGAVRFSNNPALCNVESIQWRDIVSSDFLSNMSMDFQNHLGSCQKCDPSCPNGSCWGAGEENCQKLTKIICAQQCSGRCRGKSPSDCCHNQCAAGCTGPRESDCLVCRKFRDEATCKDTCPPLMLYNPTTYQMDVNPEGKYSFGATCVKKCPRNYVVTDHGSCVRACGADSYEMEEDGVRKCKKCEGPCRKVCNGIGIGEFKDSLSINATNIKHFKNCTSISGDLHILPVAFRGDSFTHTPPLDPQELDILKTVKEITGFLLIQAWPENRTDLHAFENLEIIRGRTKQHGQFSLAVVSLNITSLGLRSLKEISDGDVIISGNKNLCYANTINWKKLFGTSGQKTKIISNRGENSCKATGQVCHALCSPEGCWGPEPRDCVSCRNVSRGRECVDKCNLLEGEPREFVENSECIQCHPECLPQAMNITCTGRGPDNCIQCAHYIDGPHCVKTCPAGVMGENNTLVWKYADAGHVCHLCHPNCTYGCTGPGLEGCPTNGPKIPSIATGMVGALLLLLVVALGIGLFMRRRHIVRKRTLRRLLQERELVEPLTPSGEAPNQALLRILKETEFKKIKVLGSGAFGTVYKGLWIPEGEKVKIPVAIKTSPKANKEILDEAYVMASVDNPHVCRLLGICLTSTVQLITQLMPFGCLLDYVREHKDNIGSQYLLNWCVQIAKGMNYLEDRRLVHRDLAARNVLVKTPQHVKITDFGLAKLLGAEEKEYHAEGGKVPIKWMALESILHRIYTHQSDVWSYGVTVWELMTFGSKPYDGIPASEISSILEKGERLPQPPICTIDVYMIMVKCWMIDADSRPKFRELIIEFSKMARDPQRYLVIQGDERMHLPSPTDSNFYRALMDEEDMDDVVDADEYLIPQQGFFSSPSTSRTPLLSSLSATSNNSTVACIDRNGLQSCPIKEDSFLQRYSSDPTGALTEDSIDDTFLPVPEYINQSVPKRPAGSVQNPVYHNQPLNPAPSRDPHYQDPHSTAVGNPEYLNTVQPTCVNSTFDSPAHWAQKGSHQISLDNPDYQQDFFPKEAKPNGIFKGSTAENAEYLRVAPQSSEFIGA
# Description: as §1, §2
# [2] = molecular target: T4, EGFR L858R+T790M, endogenous (NCI-H1975) (Homo sapiens, UniProt P00533, L858R/T790M); experiment: pEGFR Y1068 ELISA assay, NCI-H1975 cells; details: inhibition of phosphorylation of EGFR at Tyr1068; NCI-H1975 NSCLC cells; 2 hr compound incubation
# T4 construct: NCI-H1975 (EGFR L858R+T790M, endogenous); host or cells: NCI-H1975
# T4 sequence (P00533 25-1210 T790M/L858R): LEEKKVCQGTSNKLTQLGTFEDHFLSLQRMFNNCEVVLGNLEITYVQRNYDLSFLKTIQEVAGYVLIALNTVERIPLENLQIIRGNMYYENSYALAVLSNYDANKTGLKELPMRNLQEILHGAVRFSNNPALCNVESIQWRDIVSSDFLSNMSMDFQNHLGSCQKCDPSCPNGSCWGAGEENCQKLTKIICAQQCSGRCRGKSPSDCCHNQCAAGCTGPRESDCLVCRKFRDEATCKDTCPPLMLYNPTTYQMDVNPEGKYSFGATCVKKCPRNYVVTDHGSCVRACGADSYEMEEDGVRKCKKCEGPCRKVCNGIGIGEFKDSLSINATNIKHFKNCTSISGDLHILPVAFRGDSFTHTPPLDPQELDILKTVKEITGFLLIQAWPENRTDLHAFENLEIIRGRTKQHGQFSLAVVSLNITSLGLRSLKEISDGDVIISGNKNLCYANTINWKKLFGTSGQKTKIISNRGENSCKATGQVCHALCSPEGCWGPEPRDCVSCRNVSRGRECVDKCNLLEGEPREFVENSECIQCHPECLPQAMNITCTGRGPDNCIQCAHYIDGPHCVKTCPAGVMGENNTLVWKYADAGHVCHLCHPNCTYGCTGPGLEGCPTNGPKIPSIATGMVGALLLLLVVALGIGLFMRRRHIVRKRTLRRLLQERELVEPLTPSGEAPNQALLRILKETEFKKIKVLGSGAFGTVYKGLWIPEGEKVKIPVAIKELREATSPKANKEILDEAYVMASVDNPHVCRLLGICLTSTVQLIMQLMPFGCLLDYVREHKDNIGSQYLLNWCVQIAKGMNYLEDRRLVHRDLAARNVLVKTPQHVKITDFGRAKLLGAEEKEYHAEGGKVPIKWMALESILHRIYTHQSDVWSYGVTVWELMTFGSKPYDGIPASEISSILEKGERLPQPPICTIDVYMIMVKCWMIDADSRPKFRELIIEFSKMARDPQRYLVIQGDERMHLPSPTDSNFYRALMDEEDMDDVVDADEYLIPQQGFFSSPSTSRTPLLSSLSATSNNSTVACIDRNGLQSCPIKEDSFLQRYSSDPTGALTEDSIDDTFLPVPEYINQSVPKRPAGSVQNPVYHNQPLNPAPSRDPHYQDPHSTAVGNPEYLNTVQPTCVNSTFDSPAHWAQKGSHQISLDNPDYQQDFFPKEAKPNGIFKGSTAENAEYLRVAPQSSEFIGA
# EGFR del/T790M (PC9-DRH) = molecular target: T5, EGFR del/T790M (PC9-DRH) (Homo sapiens, UniProt P00533, DEL746-750/T790M); experiment: pEGFR Y1068 ELISA assay, PC9-DRH cells; details: inhibition of phosphorylation of EGFR at Tyr1068; PC9-DRH cells (dacomitinib resistant); 2 hr compound incubation
# T5 construct: detects endogenous levels of phospho-EGF Receptor (Tyr1068) protein; endogenous in cells; host or cells: PC9-DRH (dacomitinib-resistant derivative of PC9, generated in house)
# Description: as §1, §2
smiles,measurement,setting,value
"C=CC(=O)N[C@@H]1CN(c2nc(Nc3cn(CC)nc3OC)c3ncn(C)c3n2)C[C@H]1F [Example 88, N-((3R,4R)-1-(6-((1-ethyl-3-methoxy-1H-pyrazol-4-yl)amino)-9-methyl-9H-purin-2-yl)-4-fluoropyrrolidin-3-yl)acrylamide]",IC50,EGFR L858R (NCI-H3255),2 nM
same,IC50,[1],194 nM
same,IC50,EGFR del (PC9),6 nM
same,IC50,[2],6 nM
same,IC50,EGFR del/T790M (PC9-DRH),1 nM
